Experimental findings from patent US10501481B2, “Heterocyclic compounds and their use in preventing or treating bacterial infections” (priority 2015, dated 2019) are described below.

Experiment [1] relates to P. aeruginosa CIP105250 (OXA-15). In words: MIC broth microdilution, compounds alone. The following applies: Pseudomonas aeruginosa, CIP105250, read-out: MIC compounds of the invention alone.
Experiment [2] deals with E. coli UFR32 (TEM-1, VEB-1, OXA-10). Put plainly: MIC broth microdilution, alone and synergy with ceftazidime. The following applies: for MIC of CAZ in combination with compound at 4 μg/mL: strain UFR32, compound fixed at 4 μg/mL. (Broth dilution looks for growth in wells or tubes with falling amounts of substance.)
Experiment [3] relates to P. aeruginosa UFR92 (derepressed AmpC, OprD−). The description is as above. The following applies: strain UFR92; compound fixed at 4 μg/mL.
Experiment [4] deals with K. oxytoca UFR21 (TEM-1, CTX-M-15, OXA-48). The experiment is described as above. The conditions noted are these: for MIC: Klebsiella oxytoca, read-out: MIC compounds of the invention alone; for MIC of CAZ in combination with compound at 4 μg/mL: strain UFR21, compound fixed at 4 μg/mL.
In experiment [5] the test system is E. coli UFR61O (TEM-1, KPC-2). The experiment is described as above. The conditions noted are these: for MIC of CAZ in combination with compound at 4 μg/mL: strain UFR61O, compound fixed at 4 μg/mL; for MIC: Escherichia coli, read-out: MIC compounds of the invention alone.
In experiment [6] the test system is K. pneumoniae UFR68 (TEM-1, SHV-11, CTX-M-15, KPC-3). The experiment is described as above. The conditions noted are these: for MIC: Klebsiella pneumoniae, read-out: MIC compounds of the invention alone; for MIC of CAZ in combination with compound at 4 μg/mL: strain UFR68, compound fixed at 4 μg/mL.
For experiment [7], the system named is K. pneumoniae 160143 (TEM-1, SHV-1, CTX-M-15, KPC-2, OXA-1). Described as above. The conditions noted are these: for MIC of CAZ in combination with compound at 4 μg/mL: strain 160143, compound fixed at 4 μg/mL; for MIC: Klebsiella pneumoniae, read-out: MIC compounds of the invention alone.
The subject of experiment [8] is P. aeruginosa UFR35 (OXA-23). Described as above. The conditions noted are these: for MIC of CAZ in combination with compound at 4 μg/mL: strain UFR35, compound fixed at 4 μg/mL.
Experiment [9] concerns P. aeruginosa UFR90 (derepressed AmpC, OprD−). Described as above. The following applies: strain UFR90; compound fixed at 4 μg/mL.
The target in experiment [10] is T1, OXA-15 (Pseudomonas aeruginosa, UniProt Q51574).
T1 construct: made in house; host or cells: E. coli
Put plainly: β-lactamase inhibitory activity, nitrocefin hydrolysis. The class given is biochemical.
Description: (§1) Enzyme activity was monitored by spectrophotometric measurement of nitrocefin (NCF-TOKU-E, N005) hydrolysis at 485 nm, at room temperature and in assay buffer A: 100 mM Phosphate pH7, 2% glycerol and 0.1 mg/mL Bovine serum albumin (Sigma, B4287). […] To a transparent polystyrene plate (Corning, 3628) were added in each well 5 μL DMSO or inhibitor dilutions in DMSO and 80 μL enzyme in buffer A. Plates were immediately read at 485 nm in a microplate spectrophotometer (BioTek, PowerWave HT) to enable background subtraction. After 30 min of pre-incubation at room temperature, 15 μL of NCF (200 μM final) were finally added in each well. Final enzyme concentrations were 0.1 nM (TEM-1), 0.075 nM (SHV-1), 0.4 nM (CTX-M-15), 1 nM (KPC-2), 0.2 nM (P99 AmpC), 0.2 nM (CMY-37), 0.4 nM (AmpC P. aeruginosa), 0.2 nM (OXA-1), 1.2 nM (OXA-11), 0.4 nM (OXA-15) and 0.3 nM (OXA-48). After 20 min incubation at room temperature, plates were once again read at 485 nm. Enzyme activity was obtained by subtracting the final signal by the background, and was converted to enzyme inhibition using non inhibited wells. IC50 curves were fitted to a classical Langmuir equilibrium model with Hill slope using XLFIT (IDBS).

Experiment [11] addresses T2, P99 AmpC (Enterobacter cloacae, UniProt P05364).
T2 construct: made in house; host or cells: E. coli
The description is as above. The conditions noted are these: class (C); 30 min pre-incubation; nitrocefin 200 μM. The format is biochemical.
Description: as §1

Experiment [12] has as its system C. murliniae 210102 (VIM-4). In words: MIC broth microdilution, alone and synergy with ceftazidime. The following applies: for MIC: read-out: MIC compounds of the invention alone; for MIC of CAZ in combination with compound at 4 μg/mL: strain 210102, compound fixed at 4 μg/mL.
Experiment [13] deals with T3, OXA-11 (Pseudomonas aeruginosa, UniProt Q06778).
T3 construct: made in house; host or cells: E. coli
In words: β-lactamase inhibitory activity, nitrocefin hydrolysis. The format is biochemical.
Description: as §1

For experiment [14], the system named is E. coli 190317 (TEM-1, SHV-12, CTX-M-15, OXA-1). In words: MIC broth microdilution, alone and synergy with ceftazidime. The conditions noted are these: for MIC of CAZ in combination with compound at 4 μg/mL: strain 190317, compound fixed at 4 μg/mL.
Experiment [15] has as its system P. aeruginosa UFR48 (VIM-2). In words: MIC broth microdilution, compounds alone. The conditions noted are these: Pseudomonas aeruginosa, read-out: MIC compounds of the invention alone.
Experiment [16] deals with P. aeruginosa UFR59 (IMP-29). In words: MIC broth microdilution, compounds alone. The conditions noted are these: Pseudomonas aeruginosa, read-out: MIC compounds of the invention alone.
Experiment [17] relates to P. aeruginosa UFR47 (VIM-1). Put plainly: MIC broth microdilution, compounds alone. The following applies: Pseudomonas aeruginosa, read-out: MIC compounds of the invention alone.
[18] abbreviates: Escherichia coli, read-out: MIC compounds of the invention alone.

T3 sequence (Q06778 21-266): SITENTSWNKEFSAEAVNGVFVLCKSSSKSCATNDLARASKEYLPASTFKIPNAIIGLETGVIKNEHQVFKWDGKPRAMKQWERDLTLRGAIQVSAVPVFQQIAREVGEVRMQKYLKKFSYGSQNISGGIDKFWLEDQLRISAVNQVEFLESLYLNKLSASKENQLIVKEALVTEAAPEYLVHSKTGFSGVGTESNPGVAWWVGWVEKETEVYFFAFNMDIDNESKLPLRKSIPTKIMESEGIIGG
T1 sequence (Q51574 22-275): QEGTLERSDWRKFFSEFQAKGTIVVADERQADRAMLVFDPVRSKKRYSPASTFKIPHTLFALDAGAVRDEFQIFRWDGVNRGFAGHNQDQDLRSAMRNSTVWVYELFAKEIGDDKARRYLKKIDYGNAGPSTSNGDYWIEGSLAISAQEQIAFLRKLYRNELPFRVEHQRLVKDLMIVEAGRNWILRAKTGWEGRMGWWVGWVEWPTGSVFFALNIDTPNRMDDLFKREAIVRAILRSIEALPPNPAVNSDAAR
T2 sequence (P05364 21-381): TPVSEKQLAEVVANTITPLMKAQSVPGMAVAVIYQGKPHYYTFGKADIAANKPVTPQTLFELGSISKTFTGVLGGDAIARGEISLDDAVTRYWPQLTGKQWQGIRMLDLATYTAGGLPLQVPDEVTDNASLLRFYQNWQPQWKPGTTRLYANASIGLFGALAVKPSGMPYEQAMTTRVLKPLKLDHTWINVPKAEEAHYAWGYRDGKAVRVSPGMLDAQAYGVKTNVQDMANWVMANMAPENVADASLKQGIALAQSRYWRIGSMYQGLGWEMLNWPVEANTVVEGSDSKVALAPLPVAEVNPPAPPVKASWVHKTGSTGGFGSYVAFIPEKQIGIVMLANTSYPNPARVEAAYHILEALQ

The term MIC denotes the least concentration at which growth counts as inhibited. As usually defined, the IC50 is the concentration needed to halve the response being measured. A lower IC50 goes with higher potency. For the compound `Cn1c2c(sc1=O)C1CN(C2)C(=O)N1OS(=O)(=O)[O-].[Na+]` (stereo not shown) [Example 1, Sodium (5-methyl-4,9-dioxo-3-thia-5,8,10-triaza-tricyclo[6.2.1.0^2.6]undec-2(6)-en-10-yl) sulfate], the MIC in experiment [1] was more than 32 µg/mL; in experiment [4], 8 µg/mL; in experiment [6], 32 µg/mL; in experiment [12] it was 32 µg/mL. For the same compound, the “MIC of CAZ in combination with compound at 4 μg/mL” value (shortened to “MIC of CAZ in combination”) in experiment [2] is less than 0.25 µg/mL; in experiment [3], 32 µg/mL; in experiment [4] it was 2 µg/mL; in experiment [5] it was less than 0.25 µg/mL; in [6], 64 µg/mL; in experiment [7], 0.5 µg/mL. Also, the “MIC of CAZ in combination” value was 4 µg/mL in [8], 64 µg/mL in experiment [9], more than 128 µg/mL in [12] and not above 0.125 µg/mL in experiment [14]. The results for the IC50 in experiment [10], in experiment [11] and in [13] were 250 nM, 48 nM and 40 nM, respectively.
On to `NCCn1c2c(sc1=O)C1CN(C2)C(=O)N1OS(=O)(=O)[O-].[Na+]` (stereo not shown) [Example 4, Sodium and 2,2,2-trifluoroacetate [5-(2-azaniumethyl)-4,9-dioxo-3-thia-5,8,10-triaza-tricyclo[6.2.1.0^2.6]undec-2(6)-en-10-yl] sulfate], for which the minimal inhibitory concentration (MIC) in [1] was determined as 8 µg/mL; in [2] (setting [18]) it was 1 µg/mL; in [4], 4 µg/mL; in experiment [5], 4 µg/mL; in experiment [8] (Pseudomonas aeruginosa, read-out: MIC compounds of the invention alone) it was 8 µg/mL; in [15] it was 8 µg/mL. Also, the MIC in experiment [12] came to 4 µg/mL; in experiment [16], 8 µg/mL; in experiment [14] (setting [18]) it was 1 µg/mL; in experiment [17], 16 µg/mL. Moreover, the “MIC of CAZ in combination” value in [2] is less than 0.25 µg/mL; in [3] it was not above 0.25 µg/mL; in experiment [4], less than 0.25 µg/mL; in experiment [5] it was less than 0.25 µg/mL; in [6], less than 0.25 µg/mL; in experiment [7] it was not above 0.25 µg/mL. Moreover, the “MIC of CAZ in combination” value in experiment [8] was 2 µg/mL; in experiment [9] it was 1 µg/mL; in [12], less than 0.25 µg/mL; in experiment [14] it was less than 0.25 µg/mL. In addition, the concentration for half-maximal inhibition (IC50) in [10] was found to be 300 nM; in experiment [11] it was 140 nM; in experiment [13], 82 nM.
Take `O=C1N2Cc3c(sc(=O)n3CCO)C(C2)N1OS(=O)(=O)[O-].[Na+]` (stereo not shown) [Example 5, Sodium [5-(2-hydroxyethyl)-4,9-dioxo-3-thia-5,8,10-triaza-tricyclo[6.2.1.0^2.6]undec-2(6)-en-10-yl) sulfate]: the minimal inhibitory concentration (MIC) in experiment [1] is more than 32 µg/mL; in [4], 4 µg/mL; in experiment [6] it was 8 µg/mL; in [7], 8 µg/mL; in experiment [12], 8 µg/mL. Further, the “MIC of CAZ in combination” value in [2] is less than 0.25 µg/mL; in [4], less than 0.25 µg/mL; in [5] it was less than 0.25 µg/mL; in experiment [6], not above 0.25 µg/mL; in experiment [7] it was less than 0.25 µg/mL; in experiment [12], 64 µg/mL. Also, the “MIC of CAZ in combination” value in [14] was less than 0.25 µg/mL. The IC50 in experiment [10] turned out to be 190 nM; in experiment [11] it was 24 nM; in [13], 31 nM.
For `COC(=O)Cn1c2c(sc1=O)C1CN(C2)C(=O)N1OS(=O)(=O)[O-].[Na+]` (stereo not shown) [Example 2, Sodium [5-(2-methoxy-2-oxo-ethyl)-4,9-dioxo-3-thia-5,8,10-triaza-tricyclo[6.2.1.0^2.6]undec-2(6)-en-10-yl] sulfate], the minimum inhibitory concentration (MIC) was more than 32 µg/mL in [1]; 8 µg/mL in experiment [4]; 8 µg/mL in experiment [5]; 32 µg/mL in [6]; 16 µg/mL in experiment [7]; 16 µg/mL in experiment [12]. Moreover, the “MIC of CAZ in combination” value was less than 0.25 µg/mL in experiment [2]; 16 µg/mL in experiment [4]; less than 0.25 µg/mL in experiment [5]; 32 µg/mL in experiment [6]; 8 µg/mL in [7]; less than 0.25 µg/mL in experiment [14]. The half-inhibitory concentration (IC50) in experiment [10] was 57 nM; in [11] it was 16 nM; in experiment [13], 4.1 nM.
